Source: US7384971B2, “Phytochemicals for the treatment of cervical dysplasia” (BioResponse L.L.C., priority 1999, dated 2008)

Experiments:
[1] = system: person with chronic recurring breast pain (mastalgia); test: Case study: processed DIM for chronic recurring breast pain (Example 5); assay type: in vivo, human; set-up: key to Typical Breast Pain Score / Typical Breast Soreness Score: 0 = none; 1 = mild; 2 = moderate; 3 = significant; 4 = severe; details: After DIM, 225 mg per day, one month
Description: The purpose of this study was to determine whether dietary supplementation with the cruicferous phytochemical, Diindolylmethane (DIM) is effective in relieving the pain of this chronic condition. patient one is a person referred for evaluation of perimenopausal symptoms of chronic recurring breast pain. They had been troubled by breast pain for many years with recent worsening in their symptoms. They had undergone a vaginal hysterectomy due to excessive and painful menstrual periods. Since their ovaries were left intact, they have received no Hormonal Replacement Therapy (HRT). During the last 4 years they experienced a monthly cycle of breast pain for about one week of each month. The breast pain was bilateral, associated with significant tenderness to touch, and a discomfort described as “heaviness or swelling.” A trial of a women's health supplement containing Don Quai provided no relief. Evaluation included a baseline morning urine sample and close assessment of their symptoms of breast pain during the ensuing month. Following this, bioavailable DIM was begun as a supplement at 225 mg per day together with increased dietary fiber. […] A second urine sample was obtained after one month on the DIM supplement.

[2] = system: serum Ca-125 antigen; test: Serial serum Ca-125 antigen levels in endometriosis patient; assay type: in vivo, human
Description: Diagnosis of the endometriosis and reduction in pain severity correlated with serial levels of serum Ca-125 antigen. Ca-125 is a serum marker with documented usefulness in monitoring the activity of endometriosis in a given patient (Pittaway D E and Fayez J A, 1986, “The use of CA-125 in the diagnosis and management of endometriosis”, Fertil Steril 46:790).

[3] = system: person with severe endometriosis; test: Case study: processed DIM for endometriosis pain (Example 8); assay type: in vivo, human
Description: patient two is a slender and athletic person who sought alternatives in their management of severe endometriosis. Their symptoms of recurrent mid-cycle and menstrually associated pain have been diagnosed as due to endometriosis based on pelvic laparoscopy. This procedure confirmed aggressive endometriosis with ectopic endometrial implants removed from the pelvis and associated with intestinal serosal spread. A history of 2 years of intense pelvic pain at mid-cycle and during menstrual flow was reported prior to the laparoscopy. Their parent gives a history of painful menstrual periods […]. They went on to develop ovarian cancer requiring radical surgery […]. A maternal aunt developed cervical cancer requiring surgery. […] Like the patient, a younger sibling has been troubled with painful menstrual periods and pelvic pain leading to laparoscopy and the diagnosis of endometriosis.
Following the patient's laparoscopy, one menstrual period was still associated with significant pain. Supplementation with bioavailable processed DIM was begun approximately 6 weeks following the laparoscopy. Initial supplementation with bioavailable processed DIM provided 300 mg/day for one month which was reduced to 150 mg/day thereafter. […] The patient continued DIM supplementation for about one year.

[4] = system: MCF7 breast cancer cells; details: tested in the absence of estrogen; cited from earlier work
[5] = system: non-cancerous colon cells; details: cited from earlier work
[6] = system: colon cancer cells; details: cited from earlier work
[7] = system: 2-hydroxy and 16-hydroxy estrogen metabolites; test: Urinary estrogen metabolites, Elisa based assay (Estratest); assay type: in vivo, human; details: After DIM, 225 mg per day
Description: Evaluation included a baseline morning urine sample and close assessment of their symptoms of breast pain during the ensuing month. Following this, bioavailable DIM was begun as a supplement at 225 mg per day together with increased dietary fiber. […] A second urine sample was obtained after one month on the DIM supplement.
The urine samples were subsequently analyzed for their levels of 2-hydroxy and 16-hydroxy estrogen metabolites, using an Elisa based assay (Estratest, Immunacare, Inc., Bethlehem, Pa.).

[8] = system: carcinogen-induced breast cancer; details: oral; cited from earlier work
[9] = system: women with mastalgia; details: cited from earlier work
[10] = system: women with endometriosis; details: endometriosis therapy; cited from earlier work
[11] = system: recurrent laryngeal papillomatosis and cervical dysplasia; details: dietary supplementation; cited from earlier work
[12] = system: 2-hydroxy estrogen metabolism; details: women; cited from earlier work
[13] = Follow up Visit #3, Use of DIM YES
[14] = Follow-up Visit #1, Use of DIM YES
[15] = Follow-up Visit #2, Use of DIM YES

c1ccc2c(Cc3c[nH]c4ccccc34)c[nH]c2c1 [DIM, 3,3′-Diindolylmethane]
Typical Breast Soreness Score (in words) [1]: Absent | Typical Breast Pain Score (in words) ([1]; one patient): Absent | Typical Breast Pain Score ([1]; score out of 4): 0/4 | Typical Breast Soreness Score ([1]; score out of 4): 0/4 | Ca-125 Antigen [2, 13]: 34.0 | Ca-125 Antigen [2, 14]: 26.4 | Ca-125 Antigen [2, 15]: 23.2 | Pain Level [3, 13]: Improved | Pain Level [3, 14]: Improved | Pain Level [3, 15]: Improved | Comfort of menstrual periods / need for analgesics ([3]; supplementation for about one year): more comfortable, no longer requiring analgesics | Effect on cell growth [4]: promoted growth | Growth inhibitory activity [5]: not observed | Effect on cell growth [6]: selective growth inhibitory activity | 2-Hydroxy estrone level, urinary ([7]; morning urine after one month): 26.4 ng/ml/mg Creatinine | 2-Hydroxy to 16-Hyroxy estrone ratio ([7]; urine after one month): 5.08 | 16-Hydroxy estrone level, urinary ([7]; urine after one month): 5.1 ng/ml/mg Creatinine | Total urinary estrone metabolites ([7]; urine after one month): 31.3 ng/ml/mg Creatinine | Effect on tumor growth [8]: impede the growth

C#C[C@]1(O)CC[C@H]2[C@@H]3CCC4=Cc5oncc5C[C@]4(C)[C@H]3CC[C@@]21C [Danazol]
Response rate in mastalgia ([9]; severe breast pain): 70% | Women experiencing adverse side effects [10]: up to 80%

OCc1c[nH]c2ccccc12 [I3C, Indole-3-carbinol]
Clinical outcome [11]: some clinical improvement | Effect on 2-hydroxy estrogen metabolism [12]: increase 2-hydroxy estrogen metabolism

CC(=O)O[C@]1(C(C)=O)CC[C@H]2[C@@H]3C[C@H](C)C4=CC(=O)CC[C@]4(C)[C@H]3CC[C@@]21C [medroxyprogesterone acetate]
Relief of mastalgia versus placebo ([9]; controlled trial): no better than placebo
